We go through two molecules from publication PMC5772633 (Scientific Reports, 2018).

Each structure is given as a SMILES string. Where “and” joins values, the source holds several entries; their conditions need not be identical. Equal entries are not always repeated.

In data set [1] the target is T1, human D3 receptor mutant V189I (Homo sapiens, UniProt P35462, V189I).
T1 construct: Flag tag (N); His tag (C); expressed in transfected cells; host or cells: SF9 insect cells (membranes)
Put plainly: Radioligand binding assay, D3R mutant V189I. Conditions: two replicas. On the procedure:
(§1) The D3R mutations were located in the OBS or the vicinity of the OBS and were performed on nine different residues (Fig. 1).
(§2) Point mutants were made by site-directed mutagenesis using 0.5 μl Takara’s PrimeStar Hot start polymerase with 20ng D3R wild type template plasmid DNA, 5 × PrimeStar buffer, 4 μl dNTP mix (2.5 mM each dNTP), plus 0.5 μg forward and reverse primers. 18 cycles were performed at 98 °C for 30 seconds, 55 °C for 30 seconds and 72 °C for 6.5 minutes. The template was degraded with DpnI for 1 hr and transformed into DH5α competent cells.
(§3) Mutants were expressed in SF9 insect cells for 48 hrs with an approximate MOI of 5. A list of mutagenesis primers used can be found in Table S3.
(§4) Binding assays were performed on membranes prepared from transiently transfected human D3 receptor mutants in SF9 insect cells. Frozen cell paste was homogenized by Polytron in 50 mM Tris HCl buffer (pH 7.4 at 4 degrees C) containing 2.0 mM MgCl2. […] 7-OH-DPAT levels were determined by liquid scintillation counting of the filterplates in Ecolume scintillation fluid. […] Ki values were calculated according to the Cheng- Prusoff equation, Ki = IC50/(1 + (L/Kd)), where L is the concentration of the radioligand used in the experiment and the Kd value is the dissociation constant for the radioligand at the mutant receptor (determined previously by saturation analysis).

Data set [2] addresses T2, human D3 receptor mutant Y36F (Homo sapiens, UniProt P35462, Y36F).
T2 construct: Flag tag (N); His tag (C); expressed in transfected cells; host or cells: SF9 insect cells (membranes)
As to the kind of experiment: Radioligand binding assay, D3R mutant Y36F. The following applies: two replicas. On the procedure: as §1, §2, §3, §4

Data set [3] concerns the target T3, human D3 receptor mutant Y365L (Homo sapiens, UniProt P35462).
T3 construct: Flag tag (N); His tag (C); expressed in transfected cells; host or cells: SF9 insect cells (membranes)
As to the kind of experiment: Radioligand binding assay, D3R mutant Y365L. Conditions: two replicas. On the procedure:
as §1, §2, §3, §4

For data set [4], the target named is T4, human D3 receptor mutant I183F (Homo sapiens, UniProt P35462, I183F).
T4 construct: Flag tag (N); His tag (C); expressed in transfected cells; host or cells: SF9 insect cells (membranes)
As to the kind of experiment: Radioligand binding assay, D3R mutant I183F. On the procedure: as §1, §2, §3, §4

On the set-up of data set [5]: method as in PMID 27715007. The following applies: in vivo; cited from earlier work.
Data set [6] deals with human D3 receptor triple mutant Y36L, S182I, V350I (Homo sapiens, UniProt P35462, S182I/V350I/Y36L). As to the kind of experiment: Radioligand binding assay, D3R triple mutant. Conditions: two replicas. On the procedure:
as §1, §2, §3, §4

The target in data set [7] is T5, human D3 receptor mutant V189A (Homo sapiens, UniProt P35462, V189A).
T5 construct: Flag tag (N); His tag (C); expressed in transfected cells; host or cells: SF9 insect cells (membranes)
Put plainly: Radioligand binding assay, D3R mutant V189A. On the procedure: as §1, §2, §3, §4

A further data set has as its system D2R. Further details: method as in PMID 27715007. The following applies: cited from earlier work.
The target of data set [8] is T6, human D3 receptor mutant E90Q (Homo sapiens, UniProt P35462, E90Q).
T6 construct: Flag tag (N); His tag (C); expressed in transfected cells; host or cells: SF9 insect cells (membranes)
As to the kind of experiment: Radioligand binding assay, D3R mutant E90Q. Conditions: two replicas. On the procedure:
as §1, §2, §3, §4

In another data set the target is T7, wt-D3R (Homo sapiens, UniProt P35462).
T7 construct: Flag tag (N); His tag (C); expressed in transfected cells; host or cells: SF9 insect cells (membranes), pFastbac/baculovirus
As to the kind of experiment: Radioligand ([3H]7-OH-DPAT) binding assay, wild type D3R membranes from SF9 cells.

Data set [9] addresses T8, human D3 receptor mutant S182I (Homo sapiens, UniProt P35462, S182I).
T8 construct: Flag tag (N); His tag (C); expressed in transfected cells; host or cells: SF9 insect cells (membranes)
Put plainly: Radioligand binding assay, D3R mutant S182I. Conditions: two replicas. On the procedure:
as §1, §2, §3, §4

The target in data set [10] is human D3 receptor mutant Y373F (Homo sapiens, UniProt P35462, Y373F). Put plainly: Radioligand binding assay, D3R mutant Y373F. The following applies: two replicas. On the procedure: as §1, §2, §3, §4
Data set [11] deals with T9, human D3 receptor mutant Y36L (Homo sapiens, UniProt P35462, Y36L).
T9 construct: Flag tag (N); His tag (C); expressed in transfected cells; host or cells: SF9 insect cells (membranes)
Put plainly: Radioligand binding assay, D3R mutant Y36L. The following applies: two replicas. On the procedure: as §1, §2, §3, §4

For data set [12], the target named is T10, human D3 receptor mutant E90L (Homo sapiens, UniProt P35462, E90L).
T10 construct: Flag tag (N); His tag (C); expressed in transfected cells; host or cells: SF9 insect cells (membranes)
As to the kind of experiment: Radioligand binding assay, D3R mutant E90L. Conditions: two replicas. On the procedure: as §1, §2, §3
Binding assays were performed on membranes prepared from transiently transfected human D3 receptor mutants in SF9 insect cells. Frozen cell paste was homogenized by Polytron in 50 mM Tris HCl buffer (pH 7.4 at 4 degrees C) containing 2.0 mM MgCl2. The cell membranes were spun in a high-speed centrifuge at 40,000 × g for ten minutes. The final pellet was re-suspended in assay buffer (50 mM Tris buffer, 120 mM NaCl, 5 mM MgCl2, 5 mM KCl, 2 mM CaCl2, pH 7.4 at 37 °C). […] 7-OH-DPAT levels were determined by liquid scintillation counting of the filterplates in Ecolume scintillation fluid.

The target in data set [13] is T11, human D3 receptor mutant C114L (Homo sapiens, UniProt P35462, C114L).
T11 construct: Flag tag (N); His tag (C); expressed in transfected cells; host or cells: SF9 insect cells (membranes)
As to the kind of experiment: Radioligand binding assay, D3R mutant C114L. The following applies: two replicas. On the procedure: as §1, §2, §3, §4

In a further data set the target is D3R. The following applies: Table 1; cited from earlier work.

With `CCN1CCO[C@@H](c2ccc(NS(=O)(=O)c3ccc(C(C)C)cc3)c(C)c2)C1` [Compound 1, PF-4363467], the Ki – broadly, the equilibrium dissociation constant of an inhibitor or competing ligand from its target – in data set [1] is 8.2 nM and 6.5 nM; in data set [2], 3.2 nM and 2.5 nM; in data set [3], 13.1 nM and 12.5 nM; in data set [4] (D3R mutant I183F, two replicas), 55 nM and 43 nM; in data set [6], 29.5 nM and 22 nM; in data set [7] (D3R mutant V189A, two replicas) it was 24 nM and 30 nM. Moreover, the Ki in data set [8] was 6 nM and 5.4 nM; on wt-D3R (wild type D3R, Table 1) it was 3.4 ± 0.4 nM; in data set [9] it was 3.6 nM and 2.1 nM; in data set [10], 14.8 nM and 15.8 nM; in data set [11], 22 nM and 13 nM; in data set [12] it was 4.9 nM and 3.7 nM. Further, the Ki in data set [13] was 1.6 nM and 1.3 nM. The entries for the “decrease in affinity (fold-shift Ki mutant/Ki wt)” value in data set [4] (I183F mutant vs wt D3R) and in [7] (V189A mutant vs wt D3R) were 14 fold and 8 fold, respectively. Besides, in data set [5], the “locomotor or catalepsy side effects” value is on record as “lack of locomotor or catalepsy side effects”. For the same molecule, in the data set on D2R, the D2R receptor occupancy is 86%. Besides, the “ΔGexp (experimental binding free energy)” value on wt-D3R (wt D3R) is -11.6 kcal/mol.
With `CCc1cc(Cl)c(OC)c(C(=O)NC[C@@H]2CCCN2CC)c1O` [Compound 2, Eticlopride], the Ki on D3R was 0.24 nM.
